This is an account of results in patent US4118561A, “7-(Substituted)-7H-pyrrolo[3,2-f]quinazoline-1,3-diamines” (priority 1977, dated 1978).

The subject of test [1] is K. pneumoniae 10031. The experiment in a line: In vitro antibacterial activity (MIC), K. pneumoniae 10031. The note with it: Klebsiella pneumoniae, 10031, 18 h.
The test system of test [2] is P. vulgaris 6896. The experiment in a line: In vitro antibacterial activity (MIC), P. vulgaris 6896. Particulars: Proteus vulgaris, 6896, 18 h.
Test [3] has as its system E. coli 9637. The experiment in a line: In vitro antibacterial activity (MIC), E. coli 9637. The note with it: Escherichia coli, 9637, 18 h.
Test [4] deals with S. paratyphi 11737. The experiment in a line: In vitro antibacterial activity (MIC), S. paratyphi 11737. The test is classed as cell-based. Particulars: Salmonella enterica, 18 h.
Test [5] deals with N. catarrhalis 8193. The experiment in a line: In vitro antibacterial activity (MIC), N. catarrhalis 8193. The note with it: 18 h.
The test system of test [6] is S. aureus Smith. The experiment in a line: In vitro antibacterial activity (MIC), S. aureus Smith. Particulars: Staphylococcus aureus, 18 h.
Test [7] deals with S. aureus 53-180. The experiment in a line: In vitro antibacterial activity (MIC), S. aureus 53-180. Particulars: Staphylococcus aureus, 53180, 18 h.

As usually defined, the MIC is the smallest concentration in the dilution series that meets the test's criterion for growth inhibition. Low readings indicate greater potency, high ones weaker potency.

Converted amounts (≈) assume the structure as drawn.

As for `CCC(=O)c1ccc(-n2ccc3c4c(N)nc(N)nc4ccc32)cc1` [Example 72], the MIC in test [1] was 31.3 µg/mL (≈ 94.5 µM); in test [2], above 250 µg/mL; in test [3] it was 15.6 µg/mL (≈ 47.1 µM); in test [4], above 250 µg/mL; in test [5] it was 0.031 µg/mL (≈ 0.0935 µM); in test [6] it was 31.3 µg/mL (≈ 94.5 µM). This compound also registered an MIC in test [7] of 7.81 µg/mL (≈ 23.6 µM).

With `Nc1nc(N)c2c(ccc3c2ccn3Cc2cccs2)n1` [Example 59], the MIC in test [1] was determined as 0.061 µg/mL (≈ 0.207 µM); in test [2], 0.244 µg/mL (≈ 0.826 µM); in test [3], 0.061 µg/mL (≈ 0.207 µM); in test [4], 0.244 µg/mL (≈ 0.826 µM); in test [5] it was 0.0019 µg/mL (≈ 0.00643 µM); in test [6], 0.244 µg/mL (≈ 0.826 µM). The compound further returned an MIC in test [7] of 0.061 µg/mL (≈ 0.207 µM).

As to `Cc1cc2c3c(N)nc(N)nc3ccc2n1Cc1cccc(C#N)c1` [Example 101], the minimal inhibitory concentration (MIC) was determined as 0.061 µg/mL (≈ 0.186 µM) in test [1]; 3.9 µg/mL (≈ 11.9 µM) in test [2]; 0.488 µg/mL (≈ 1.49 µM) in test [3]; 3.9 µg/mL (≈ 11.9 µM) in test [4]; 0.0038 µg/mL (≈ 0.0116 µM) in test [5]; 0.122 µg/mL (≈ 0.372 µM) in test [6]. The compound also showed an MIC in test [7] of 0.061 µg/mL (≈ 0.186 µM).

Take `COc1ccc(OC)c(Cn2ccc3c4c(N)nc(N)nc4ccc32)c1` [Example 36]: the MIC in test [1] turned out to be 0.031 µg/mL (≈ 0.0887 µM); in test [2], 3.9 µg/mL (≈ 11.2 µM); in test [3], 0.976 µg/mL (≈ 2.79 µM); in test [4], 3.9 µg/mL (≈ 11.2 µM); in test [5], 0.031 µg/mL (≈ 0.0887 µM); in test [6] it was 0.244 µg/mL (≈ 0.698 µM). For the same compound, it took 0.122 µg/mL (≈ 0.349 µM) to inhibit growth in test [7] (MIC).

With `Cc1cc2c3c(N)nc(N)nc3ccc2n1Cc1ccc(C#N)cc1` [Example 102], the MIC in test [1] came to 0.244 µg/mL (≈ 0.743 µM); in test [2], 31.3 µg/mL (≈ 95.3 µM); in test [3] it was 1.95 µg/mL (≈ 5.94 µM); in test [4] it was 7.81 µg/mL (≈ 23.8 µM); in test [5], 0.061 µg/mL (≈ 0.186 µM); in test [6], 0.976 µg/mL (≈ 2.97 µM). Besides, in test [7], the minimal inhibitory concentration (MIC) was found to be 0.976 µg/mL (≈ 2.97 µM).

Turning to `Nc1nc(N)c2c(ccc3c2ccn3-c2ccc3ccccc3n2)n1` [Example 86], the MIC in test [1] was above 250 µg/mL; in test [2] it was above 250 µg/mL; in test [3] it was above 250 µg/mL; in test [4], above 250 µg/mL; in test [5], 0.122 µg/mL (≈ 0.374 µM); in test [6], above 250 µg/mL. For the same compound, in test [7], the MIC was above 250 µg/mL.

Consider `Nc1nc(N)c2c(ccc3c2ccn3-c2ccccc2C(F)(F)F)n1` [Example 93], for which the MIC stood at 0.061 µg/mL (≈ 0.178 µM) in test [1]; 1.95 µg/mL (≈ 5.68 µM) in test [2]; 0.244 µg/mL (≈ 0.711 µM) in test [3]; 0.976 µg/mL (≈ 2.84 µM) in test [4]; 0.0076 µg/mL (≈ 0.0221 µM) in test [5]; 0.061 µg/mL (≈ 0.178 µM) in test [6]. Also, the MIC in test [7] came out at 0.031 µg/mL (≈ 0.0903 µM).

Turning to `Cn1c(-c2ccccc2)cc2c3c(N)nc(N)nc3ccc21` [Example 106, 7-Methyl-8-phenyl-7H-pyrrolo[3,2-f]-quinazoline-1,3-diamine], the MIC in test [1] was 3.9 µg/mL (≈ 13.5 µM); in test [2], above 250 µg/mL; in test [3], above 250 µg/mL; in test [4], above 250 µg/mL; in test [5] it was 31.3 µg/mL (≈ 108 µM); in test [6], 62.5 µg/mL (≈ 216 µM). This compound also showed an MIC in test [7] of 125 µg/mL (≈ 432 µM).

Regarding `Nc1nc(N)c2c(ccc3c2ccn3-c2ccccn2)n1` [Example 83], the MIC is 0.244 µg/mL (≈ 0.883 µM) in test [1]; 0.976 µg/mL (≈ 3.53 µM) in test [2]; 0.488 µg/mL (≈ 1.77 µM) in test [3]; 0.976 µg/mL (≈ 3.53 µM) in test [4]; 0.0076 µg/mL (≈ 0.0275 µM) in test [5]; 0.976 µg/mL (≈ 3.53 µM) in test [6]. In addition, it took 0.488 µg/mL (≈ 1.77 µM) to inhibit growth in test [7] (MIC).

On to `CCOC(=O)c1ccc(-n2ccc3c4c(N)nc(N)nc4ccc32)cc1` [Example 75], for which the minimal inhibitory concentration (MIC) in test [1] was 250 µg/mL (≈ 720 µM); in test [2], above 250 µg/mL; in test [3], above 250 µg/mL; in test [4] it was above 250 µg/mL; in test [5], 0.122 µg/mL (≈ 0.351 µM); in test [6] it was 125 µg/mL (≈ 360 µM). Also, the MIC in test [7] stood at 7.81 µg/mL (≈ 22.5 µM).

For `CS(=O)(=O)c1ccc(-n2ccc3c4c(N)nc(N)nc4ccc32)cc1` [Example 74], the MIC in test [1] turned out to be 0.244 µg/mL (≈ 0.69 µM); in test [2], 15.6 µg/mL (≈ 44.1 µM); in test [3], 0.976 µg/mL (≈ 2.76 µM); in test [4], 7.81 µg/mL (≈ 22.1 µM); in test [5] it was 0.0152 µg/mL (≈ 0.043 µM); in test [6] it was 0.976 µg/mL (≈ 2.76 µM). This compound also registered an MIC in test [7] of 0.976 µg/mL (≈ 2.76 µM).

Take `Cc1cc(C)c(C)c(Cn2ccc3c4c(N)nc(N)nc4ccc32)c1C` [Example 28]: the MIC is 3.9 µg/mL (≈ 11.3 µM) in test [1]; above 250 µg/mL in test [2]; above 250 µg/mL in test [3]; above 250 µg/mL in test [4]; 0.244 µg/mL (≈ 0.706 µM) in test [5]; 15.6 µg/mL (≈ 45.2 µM) in test [6]. The MIC in test [7] was 15.6 µg/mL (≈ 45.2 µM).

`Cc1cc(C)cc(Cn2ccc3c4c(N)nc(N)nc4ccc32)c1` [Example 26]: the MIC amounted to 0.244 µg/mL (≈ 0.769 µM) in test [1]; 15.6 µg/mL (≈ 49.1 µM) in test [2]; 7.81 µg/mL (≈ 24.6 µM) in test [3]; 15.6 µg/mL (≈ 49.1 µM) in test [4]; 0.031 µg/mL (≈ 0.0977 µM) in test [5]; 0.976 µg/mL (≈ 3.08 µM) in test [6]. The same compound showed an MIC in test [7] of 0.488 µg/mL (≈ 1.54 µM).
